Earlier results on three molecules are cited in patent US11491245B2, “Gadolinium chelate compounds for use in magnetic resonance imaging” (BAYER PHARMA AKTIENGESELLSCHAFT, priority 2015, dated 2022).

Like-named read-outs stand apart in the source and are kept apart here.

For this data set the following is noted: 37° C., cited from earlier work; for r1 FBS: bovine plasma.
[1] abbreviates: reference compounds (marked ^), 3.0 T, average ± standard deviation.
Where [2] appears, read: reference compounds, 1.5 T, from Rohrer et al.

For the molecule `CNC[C@H](O)[C@@H](O)[C@H](O)[C@H](O)CO.CNC[C@H](O)[C@@H](O)[C@H](O)[C@H](O)CO.O=C([O-])CN(CCN(CC(=O)[O-])CC(=O)O)CCN(CC(=O)[O-])CC(=O)O.[Gd+3]` [Reference compound 2, gadopentetate dimeglumine], under setting [1], the r1 human plasma was 3.7 ± 0.2 L/mmol/s and the r1 water is 3.1 ± 0.3 L/mmol/s. Under setting [2], the “r1 FBS” value was 4.1 L/mmol/s and the r1 water was 3.3 L/mmol/s.

Regarding `CCOc1ccc(CC(CN(CCN(CC(=O)[O-])CC(=O)[O-])CC(=O)[O-])N(CC(=O)[O-])CC(=O)[O-])cc1.[Gd+3].[Na+].[Na+]` (stereo not drawn) [Reference compound 3, gadoxetate disodium], under setting [1], the r1 human plasma is 6.2 ± 0.3 L/mmol/s and the r1 water is 4.3 ± 0.3 L/mmol/s. Further, under setting [2], the “r1 FBS” value is 6.9 L/mmol/s and the r1 water is 4.7 L/mmol/s.

Turning to Gadomer-17 [Reference compound 4], under setting [1], the r1 human plasma is 13 ± 1 L/mmol/s and the r1 water was 13.0 ± 0.7 L/mmol/s. Moreover, under setting [2], the “r1 FBS” value is 16 L/mmol/s and the r1 water is 17.3 L/mmol/s.
